Assay results: ChEMBL document CHEMBL4261597, “1,2,3-Triazole fused with pyridine/pyrimidine as new template for antimicrobial agents: Regioselective synthesis and identification of potent N-heteroarenes” (2018)
Active and inactive are the calls of the source. The rule behind the calls is not given here.

Legend:
Bacillus subtilis [1] = assay: Antibacterial activity against Bacillus subtilis assessed as zone of inhibition at 10 ug after 24 hrs; format: functional; conditions: for zone of inhibition at 10 µg/disc: read-out: DIZ
Escherichia coli [2] = assay: Antibacterial activity against Escherichia coli assessed as zone of inhibition at 10 ug after 24 hrs; format: functional; conditions: for zone of inhibition at 10 µg/disc: read-out: DIZ
Fusarium oxysporum [3] = assay: Antifungal activity against Fusarium oxysporum lycopersici assessed as zone of inhibition at 10 ug after 48 hrs; format: functional, Fusarium oxysporum f. sp. lycopersici; conditions: read-out: DIZ
Fusarium [4] = assay: Antifungal activity against Fusarium recini assessed as zone of inhibition at 10 ug after 48 hrs; format: functional; conditions: read-out: DIZ
Fusarium oxysporum [5] = assay: Antifungal activity against Fusarium oxysporum lycopersici after 48 hrs; format: functional, Fusarium oxysporum f. sp. lycopersici
Fusarium [6] = assay: Antifungal activity against Fusarium recini after 48 hrs; format: functional
Bacillus subtilis [7] = assay: Antibacterial activity against Bacillus subtilis after 24 hrs; format: functional
Escherichia coli [8] = assay: Antibacterial activity against Escherichia coli after 24 hrs; format: functional
Bacillus subtilis [9] = assay: Antibacterial activity against Bacillus subtilis at 25 to 100 ug after 24 hrs; format: functional, organism-based
Escherichia coli [10] = assay: Antibacterial activity against Escherichia coli at 25 to 100 ug after 24 hrs; format: functional, organism-based

MIC (Fusarium oxysporum [5]) [µg] | MIC (Fusarium [6]) [µg] | MIC (Bacillus subtilis [7]) [µg] | MIC (Escherichia coli [8]) [µg] | SMILES | diameter of the inhibition zone (DIZ) (Bacillus subtilis [1]) | diameter of the inhibition zone (DIZ) (Escherichia coli [2]) | zone of inhibition at 10 µg/disc (Fusarium oxysporum [3]) [mm] | zone of inhibition at 10 µg/disc (Fusarium [4]) [mm] | zone of inhibition at 10 µg/disc (Bacillus subtilis [1]) [mm] | zone of inhibition at 10 µg/disc (Escherichia coli [2]) [mm] | Activity (Bacillus subtilis [9]) | Activity (Escherichia coli [10])
50 | 25 | – | – | Clc1cc2c(cn1)nnn2C1CCOCC1 | inactive | inactive | 6 | 6 | – | – | – | –
100 | 50 | – | – | COc1ccc(-n2nnc3cccnc32)cc1 | inactive | inactive | 2 | 3 | – | – | – | –
50 | 50 | – | – | Fc1ccc(-n2nnc3cnc(Cl)cc32)cc1 | inactive | inactive | 3 | 7 | – | – | – | –
100 | 25 | 25 | 25 | Clc1cc2c(cn1)nnn2Cc1ccccc1 | – | – | 1 | 7 | 13 | 10 | – | –
75 | 50 | 25 | 100 | Fc1ccc(-n2nnc3cccnc32)cc1 | – | – | 6 | 5 | 12 | 11 | – | –
– | – | 25 | 25 | CN[C@@H]1[C@H](O[C@H]2[C@H](O[C@H]3[C@H](O)[C@@H](O)[C@H](N=C(N)N)[C@@H](O)[C@@H]3N=C(N)N)O[C@@H](C)[C@]2(O)C=O)O[C@@H](CO)[C@H](O)[C@H]1O [STREPTOMYCIN] | – | – | – | – | 16 | 13 | – | –
100 | 50 | – | – | Oc1ncnc2c1nnn2Cc1ccccc1 | inactive | inactive | 5 | 6 | – | – | inactive | inactive
75 | 100 | – | – | Cc1ccc(-n2nnc3cccnc32)c(C)c1 | inactive | inactive | 6 | 6 | – | – | – | –
75 | 50 | – | – | c1cnc2c(c1)nnn2C1CCOCC1 | inactive | inactive | 3 | 5 | – | – | – | –
50 | 25 | – | – | COc1ccc(-n2nnc3cnc(Cl)cc32)cc1 | inactive | inactive | 6 | 7 | – | – | – | –
